Eight compounds from publication PMC12735718, “Novel Adamantane–Sclareol Hybrids Exploit ROS Vulnerability to Overcome Multidrug-Resistance in Glioblastoma Cells” (Molecules, 2025) can be followed below.

The IC50 is the midpoint of a concentration-inhibition curve.

The subject of assay [1] is TrxR (SH-SY5Y cell lysate). Put plainly: Colorimetric detection of cell lysate TrxR activity (DTNB). It counts as biochemical, human. The following applies: positive control, 20 µM, DTNB absorbance over 20 min. The source says:
We further analyzed the potential of adamantane–sclareol hybrids to inhibit TrxR enzyme activity using a colorimetric assay for the detection of TrxR activity in cell lysates. This kinetic assay is based on the ability of TrxR to reduce its substrate 5,5ʹ-dithiobis(2-nitrobenzoic acid) (DTNB) to the yellow product 5-thio-2-nitrobenzoic acid (TNB) in the presence of NADPH. The absorbance of the produced TNB is considered equivalent to the enzymic activity of TrxR. In the kinetic assay, the absorbance of DTNB was measured over 20 min, resulting in a curve showing the dependence of absorbance on time.
TrxR enzyme activity in cell lysate was determined by the reduction of the TrxR substrate DTNB to the yellow product TNB in the presence of NADPH (Acros Organics, Thermo Fisher Scientific, Waltham, MA, USA). Lysate from human neuroblastoma SH-SY5Y cells was used for the TrxR assay. SH-SY5Y cells were grown to 80% confluence, washed twice with PBS, and detached using Hanks-based enzyme-free dissociation solution (Millipore, Billeri-ca, MA, USA). Collected cells were centrifuged at 2000 rpm for 3 min and rinsed in PBS buffer. After additional centrifugation, cells were lysed on ice using Lysis Buffer (50 mM Tris, 150 mM NaCl, 1 mM EDTA, 1% NP40, 0.1% SDS, 0.5% Na-deoxycholate, pH 7.8) containing protease inhibitor mix G (SERVA Electrophoresis GmbH, Heidelberg, Germany) and phosphatase inhibitor cocktail 3 (Sigma-Aldrich, Darmstadt, Germany). The cell lysates were centrifuged at 16,000× g for 15 min at 4 °C. The protein concentrations of the supernatants were determined using a Pierce^TM BCA protein assay kit (Thermo Fisher Scientific, Waltham, MA, USA). The reactions were run in 96-well plates, in a final volume of 100 μL, in 50 mM potassium phosphate buffer (pH 7.0) containing 50 μg of cell lysate proteins, 1 mM EDTA, 50 mM KCl, 0.2 mg/mL BSA, and 0.25 mM NADPH. […] Enzyme kinetics were monitored on an automated microplate reader (MultiskanSky, Thermo Fisher Scientific, Waltham, MA, USA) by measuring the increase in absorbance at 412 nm for 20 min. […]

Assay [2] concerns H2O2 and peroxynitrite anion levels in U87-TxR cells. Description: ROS detection by DHR, U87-TxR. The assay is classed as cell-based, human. The following applies: 10 µM. Here is the method: The levels of ROS were measured in U87 and U87-TxR cells by flow cytometry. The production of superoxide anions was detected using DHE fluorescence dye, while production of H2O2 and peroxynitrite anions was detected using DHR fluorescence dye. Cells were seeded in 6-well plates (150,000 cell/well) and incubated overnight. The cells were then treated with compounds 2 or 5 (4 μM) for 24 h and 48 h. CDDP (10 μM) was used as a positive control. After the treatment period, the cells were stained with DHE or DHR for 30 min in the dark. Following incubation, cells were harvested with trypsinization and washed twice in cold phosphate buffer solution (PBS). Fluorescence was measured on a CytoFlex flow cytometer (Beckman Coulter, Indianapolis, IN, USA). Green fluorescence from the oxidized DHR dye was detected at 525 nm, while the red fluorescence from ethidium derived from DHE was detected at 585 nm. At least 10,000 events were assayed for each sample. The results were analyzed by CytExpert 2.4.0.28 software (Beckman Coulter, Indianapolis, IN, USA).

In a further assay the test system is U87 cells. Description: MTT cell viability assay, U87. The assay is classed as cell-based. The note with it: Homo sapiens, U-87 MG, 72 h treatment. Here is the method:
(§1) Cell viability was measured using the colorimetric MTT assay based on the reduction of MTT into formazan dye. Cell lines were seeded into 96-well cell culture plates (4000 cells/well) in appropriate medium. After overnight incubation, cells were treated with increasing concentrations of 1, 2, 3, 4, 5, and 6 (0.5, 1, 2, 4, and 8 µM). After 72 h treatment, MTT solution (4 mg/mL) was added and plates were incubated at 37 °C with 5% CO2 for 3 h. After incubation, formazan crystals were dissolved using 100 µL DMSO, resulting in a purple color. The absorbance was measured at 570 nm with a reference wavelength of 690 nm using an automated microplate reader (MultiskanSky, Thermo Scientific, USA). The IC50 values were determined by non-linear regression analysis in GraphPad Prism 8.0.2. software (GraphPad Software, Boston, MA, USA).
In general terms: Tetrazolium assays rely on reduction of a dye to a coloured formazan, in cell work by metabolically active cells.

The subject of assay [3] is U87-TxR cells. Description: MTT cell viability assay, U87-TxR. The assay is classed as cell-based, human. The following applies: for IC50: Homo sapiens, U87-TxR, 72 h treatment, MTT, MDR cell line; for Relative Resistance Factor: ratio of IC50 values U87-TxR / U87. The procedure: as §1
A further assay has as its system SVG p12 cells. Put plainly: MTT cell viability assay, SVG p12. It counts as cell-based, human. The note with it: for IC50: Homo sapiens, SVGp12, 72 h treatment, MTT, normal glial cell line; for Selectivity Index: IC50 SVG p12 vs average IC50 in A-172, U87 and U87-TxR. The procedure:
as §1

The test system of another assay is A-172 cells. Put plainly: MTT cell viability assay, A-172. It counts as cell-based. The note with it: Homo sapiens, 72 h treatment. Here is the method: as §1
Assay [4] has as its system U87-TxR cells. Put plainly: Cell death detection, AV/PI staining, U87-TxR. The assay is classed as cell-based, human. The note with it: 48 h; for cell death effect in MDR U87-TxR cells vs sensitive U87 cells: 4 µM, AV/PI; for percentage of early apoptotic cells vs untreated: 2 µM and 4 µM, particularly at 4 µM. The procedure:
To evaluate the extent of cell death upon treatment with adamantane–sclareol hybrids, apoptotic, necrotic, and viable cell populations were assessed using dual staining with AV/PI. U87 and U87-TxR cells were seeded in 6-well plates at a density of 150,000 cells per well and incubated overnight. Subsequently, cells were treated with 2 and 5 (2 µM and 4 µM) for 48 h. At the end of the treatment period, cells were collected (both adherent and floating), washed, and incubated with AV/PI in binding buffer. Samples were analyzed using a CytoFLEX flow cytometer (Beckman Coulter, Indianapolis, IN, USA), with fluorescence signals detected at 525 nm (AV) and 585 nm (PI). At least 10,000 events were recorded per each condition. The percentages of viable (AV^− PI^−), early apoptotic (AV^+ PI^−), late apoptotic (AV^+ PI^+), and necrotic (AV^− PI^+) cells were calculated using CytExpert 2.4.0.28 software (Beckman Coulter, Indianapolis, IN, USA).

In assay [5] the test system is U87-TxR cells. Description: Combination with PTX, MTT assay. It counts as cell-based, human. The note with it: Homo sapiens, U87-TxR; PTX alone, 72 h. The procedure:
as §1
The combined effects of 2 and 5 with PTX were studied in U87-TxR cells by MTT assay as previously described. In simultaneous treatments that lasted 72 h, three concentrations of 2 and 5 (0.5, 1, and 2 µM) were combined with three concentrations of PTX (0.1 μM, 0.2 μM, and 0.5 μM). Drug combination effects were evaluated using the Chou–Talalay method, which calculates the combination index (CI) value for the degree of interaction between the drugs. This method allows quantitative assessment of synergism (CI < 1), additivity (CI close to 1), or antagonism (CI > 1) across a range of dose–effect relationships. Calcusyn® version 1.1 software was used for data analysis (Biosoft, Cambridge UK). Three data points were used for each single drug in each designed experiment. The non-constant ratio combination was chosen to assess the effect of both drugs in combination. The results are presented in a fraction-affected CI graph.

Assay [6] deals with mitochondrial membrane potential in U87 and U87-TxR cells. Description: TMRE mitochondrial membrane potential. The assay is classed as cell-based, human. The note with it: 10 µM, added 30 min before staining. The procedure:
The cell-permeable fluorescent dye TMRE was used to evaluate mitochondrial membrane potential. TMRE selectively accumulates in active mitochondria with intact membrane potential. […] U87 and U87-TxR cells were seeded in 6-well plates at a density of 150,000 cells per well. After 24 h, cells were treated with 2 and 5 (4 µM) and incubated for an additional 24 h. After treatment, cells were trypsinized, resuspended in complete medium containing 500 nM TMRE, and incubated for 30 min at 37 °C in the dark. CCCP (10 µM) was used as a positive control for mitochondrial depolarization and added 30 min before staining. For each sample, at least 10,000 events were collected. TMRE was detected at […]. The results were calculated using CytExpert 2.4.0.28 software (Beckman Coulter, Indianapolis, IN, USA).

Regarding `O=C(O)CC([S-])C(=O)O.[Au+]` (stereo not drawn) [ATM, aurothiomalate, reference compound], the TrxR enzyme activity entry in assay [1] is “inhibited TrxR activity”.
Consider `[NH2][Pt]([NH2])([Cl])[Cl]` [CDDP, Cisplatin, reference compound], for which the “positive control effect on ROS, U87-TxR vs U87” value in assay [2] is reported as “more potent effects in MDR U87-TxR cells”.
For `CC1(C)CCC[C@]2(C)[C@@H](CC[C@@](C)(O)/C=C/c3ccc(CNCCCCCCNCC45CC6CC(CC(C6)C4)C5)s3)[C@](C)(O)CC[C@@H]12` [Compound 1], the IC50 stood at 2400 ± 61 nM in the assay with U87 cells, 2080 ± 37 nM in the assay with U87-TxR cells [3], 5330 ± 132 nM with SVG p12 cells and 2470 ± 36 nM in the assay on A-172 cells. Besides, the “Relative Resistance Factor” value with U87-TxR cells [3] is 0.869. The “Selectivity Index” value with SVG p12 cells was 2.300 ^S. The “cell death effect in MDR U87-TxR cells vs sensitive U87 cells” value (“cell death effect … vs sensitive U87 cells” for short) in the assay with U87-TxR cells [4] was “significantly better effects in MDR U87-TxR cells”.
In the assay with U87 cells, `CC1(C)CCC[C@]2(C)[C@@H](CC[C@@](C)(O)/C=C/c3ccc(CNCCCCCCNCCC45CC6CC(CC(C6)C4)C5)s3)[C@](C)(O)CC[C@@H]12` [Compound 3] registered an IC50 of 2200 ± 52 nM. Moreover, in the assay with U87-TxR cells [3], the IC50 was found to be 2310 ± 52 nM and the “Relative Resistance Factor” value is on record as 1.049. In addition, in the assay on SVG p12 cells, the IC50 came out at 9290 ± 169 nM and the “Selectivity Index” value is recorded as 3.541 ^S. This compound also came in with a half-maximal inhibitory concentration (IC50) in the assay with A-172 cells of 3360 ± 57 nM. For the same compound, in the assay with U87-TxR cells [4], the “cell death effect … vs sensitive U87 cells” value is “significantly better effects in MDR U87-TxR cells” and the “percentage of early apoptotic cells vs untreated” value is on record as “significant increase”.
Take `CC1(C)CCC[C@]2(C)[C@@H](CC[C@@](C)(O)/C=C/c3ccc(CNCCCCCCNCC45CC6CC(CC(C6)C4)C5)o3)[C@](C)(O)CC[C@@H]12` [Compound 4]: the IC50 in the assay on U87 cells worked out at 1250 ± 36 nM; in the assay on U87-TxR cells [3], 1460 ± 27 nM; in the assay with SVG p12 cells, 918 ± 22 nM; in the assay with A-172 cells, 1380 ± 18 nM. The “Relative Resistance Factor” value with U87-TxR cells [3] was 1.160. In addition, the “Selectivity Index” value in the assay with SVG p12 cells worked out at 0.686. The “cell death effect … vs sensitive U87 cells” value with U87-TxR cells [4] is “significantly better effects in MDR U87-TxR cells”. For the same compound, the “percentage of early apoptotic cells vs untreated” value in the assay on U87-TxR cells [4] is “significant increase”. For the same compound, the “early apoptotic population (AV+ PI−)” value with U87-TxR cells [4] (untreated cells 4.17%, Figure S3) came to 26.84%.
`CC1(C)CCC[C@]2(C)[C@@H](CC[C@@](C)(O)/C=C/c3ccc(CNCCCCCCNCCC45CC6CC(CC(C6)C4)C5)o3)[C@](C)(O)CC[C@@H]12` [Compound 6]: the IC50 in the assay with U87 cells amounted to 2470 ± 66 nM; with U87-TxR cells [3], 1910 ± 46 nM; in the assay on SVG p12 cells, 1160 ± 27 nM; in the assay on A-172 cells, 2000 ± 26 nM. Moreover, in the assay with SVG p12 cells, the “Selectivity Index” value stood at 0.547.
For the compound `CC(=O)O[C@H]1C(=O)[C@@]2(C)[C@H]([C@H](OC(=O)c3ccccc3)[C@]3(O)C[C@H](OC(=O)[C@H](O)[C@@H](NC(=O)c4ccccc4)c4ccccc4)C(C)=C1C3(C)C)[C@]1(OC(C)=O)CO[C@@H]1C[C@@H]2O` [PTX, paclitaxel, reference compound], the IC50 in the assay on U87-TxR cells [5] is 688 ± 22 nM.
For “Carbonyl cyanide m-chlorophenyl hydrazine [CCCP, reference compound]”, the “positive control effect on mitochondrial membrane potential, U87-TxR vs U87” value in assay [6] was “more potent effects in MDR U87-TxR cells”.
